Experimental data: ChEMBL document CHEMBL1157423, “Structural and stereochemical studies of alpha-methylene-gamma-lactone-bearing cembrane diterpenoids from a south china sea soft coral Lobophytum crassum” (2008)

Key:
[1] = test system: P388; assay: Cytotoxicity against mouse P388 cells at 10 uM/L; format: functional; conditions: read-out: GI
[2] = test system: A549; assay: Cytotoxicity against human A549 cells at 10 uM/L; format: functional; conditions: read-out: GI

Row | Structure (SMILES) | inhibition of growth at 10 µM [1] | inhibition of growth at 10 µM [2]
1 | C=C1C(=O)O[C@@H]2[C@@H]1C[C@H]1O[C@]1(CO)CC/C=C(\C)CC/C=C(\C)[C@H]2O [SINULAROLIDE B] | 100% | 
2 | C=C1C(=O)O[C@@H]2[C@@H]1C/C=C(\CO)CC/C=C(\C)CC/C=C(\C)[C@H]2O [PRESINULAROLIDE B] |  | 64%
3 | C=C1C(=O)O[C@H]2C/C(C)=C/CC/C(C)=C/CC/C(CO)=C/C[C@H]12 [3-DEHYDROXYLPRESINULAROLIDE B] | 100% | 95.7%
4 | C=C1C(=O)O[C@@H]2[C@@H]1C[C@H]1O[C@]1(CO)CC/C=C(\C)CC/C=C(\C)[C@@H]2O [SINULAROLIDE C] | 63.8% | 
